Measurements from patent US4482554A, “Pharmaceutical compositions containing oxicam derivatives and process for their preparation” (Warner-Lambert Company, priority 1982, dated 1984).
Where a name gives a salt, the structure may show the parent alone. Read-outs that look alike come from different tables or passages of the source.

What was measured:
[1] = solubility in water of stoichiometric oxicam salts; format: physicochemical
[2] = stability of solutions / precipitation of active material on storage; format: physicochemical
Excerpt: Especially in the case of oxicam derivatives of general formula (I), there is, in addition, the serious problem of instability of their solutions. Even when such compounds or the salts thereof have been brought into solution, these show a strong tendency, even after a relatively short time, to deposit particles and again to precipitate out a part of the active material. For injection solutions, this is naturally not acceptable.
There are thereby unexpectedly obtained, which was not to have been foreseen by the expert, highly concentrated solutions with a content of up to 30% and preferably of 10 to 20%, referred to the amount of active material used, which, even after storage for 15 months, display no deposition of active material. It is most surprising that this stability is fully retained even at low temperatures.

With `Cc1cc(NC(=O)C2=C(O)c3ccccc3S(=O)(=O)N2C)no1` [potassium salts] the “solubility in water after storage” value ([1]; after 4 months, decreased by precipitation from the solution, 175200 min) was 20 mg/mL and the “solubility in water, initial” value ([1]; shortly after preparation) was “about 30 mg/ml”.

For `Cc1cc(NC(=O)C2=C(O)c3ccccc3S(=O)(=O)N2C)no1`, the solubility ([1]; stoichiometric salt with methylglucamine, per milliliter of solution, read-out: active material per milliliter of solution) was 49 mg/mL, the “dependence of degree of precipitation on concentration” value ([2]; salt solution, over wide ranges) was “not dependent upon the concentration” and the “stability of the solution” value ([2]; stoichiometric salts, precipitation of active material) was “unstable and again precipitate out considerable amounts of active material”.

With `Cc1cc(NC(=O)C2=C(O)c3ccccc3S(=O)(=O)N2C)no1` [sodium salts of isoxicam] the solubility ([1]; shortly after preparation, read-out: solubility in water, initial) was roughly 24 mg/mL.
